Laboratory results: patent publication US20250332178A1, “METHODS OF TREATING MYCOBACTERIAL INFECTIONS USING TETRACYCLINE COMPOUNDS” (priority 2018, published 2025)

Tests used:
Mycobacterium fortuitum = test: MIC by broth microdilution in CAMHB, clinical isolates; assay type: cell-based
Experimental: A total of 24 clinical isolates of Mycobacterium abscessus, 22 clinical isolates of Mycobacterium chelonae and 20 clinical isolates of Mycobacterium fortuitum were tested in the study. The study also used the antibiotics tigecycline, doxycycline and amikacin for comparison purposes. […] Amikacin was dissolved in DMSO prior to freezing at −20° C. For susceptibility testing, stock solutions of antibiotic compounds were serially diluted in 50 μL of cation adjusted Mueller-Hinton broth (CAMHB) in polystryrene 96-well round-bottom microtiter plates. To each well, 50 μL of the appropriate mycobacterial cell suspension was added to yield a final concentration of about 1×10^5 CFU/mL. The inoculum used for each isolate was measured by titration in saline with Tween 80 and plating on MH agar. The Mycobacterium abscessus and Mycobacterium fortuitum titer plates were incubated at 37° C. in ambient air for 3-4 days and 5-7 days, respectively. The Mycobacterium chelonae titer plates were incubated at 30° C. in ambient air for 3-5 days. Each isolate was tested at least in duplicate. The MIC was defined as the lowest concentration of antimicrobial agent yielding no visible turbidity.

[1] = test system: rapid-growing mycobacteria (RGM) isolates; test: MIC (CLSI broth dilution), all RGM isolates; assay type: cell-based, nontuberculous mycobacteria; settings: all 50 RGM isolates
M. abscessus complex = test: MIC (CLSI broth dilution), RGM isolates; assay type: cell-based
M. chelonae = test: MIC (CLSI broth dilution), RGM isolates; assay type: cell-based
M. fortuitum group = test: MIC (CLSI broth dilution), RGM isolates; assay type: cell-based
M. immunogenum group = test: MIC (CLSI broth dilution), RGM isolates; assay type: cell-based; settings: M. immunogenum
M. mucogenium group = test: MIC (CLSI broth dilution), RGM isolates; assay type: cell-based
M. smegmatis group = test: MIC (CLSI broth dilution), RGM isolates; assay type: cell-based
M. simiae = test: MIC (CLSI broth dilution), slow-growing NTM isolates; assay type: cell-based

NCC[C@H](O)C(=O)N[C@@H]1C[C@H](N)[C@@H](O[C@H]2O[C@H](CN)[C@@H](O)[C@H](O)[C@H]2O)[C@H](O)[C@H]1O[C@H]1O[C@H](CO)[C@@H](O)[C@H](N)[C@H]1O [Amikacin, amikacin]
8 µg/mL: MIC (M. abscessus complex; isolate 1, M. abscessus complex, erm gene type MAB30) | MIC (M. abscessus complex; isolate 4, M. abscessus complex, erm gene type massiliense) | MIC (M. abscessus complex; isolate 6, M. abscessus complex, erm gene type Type 1 abscessus) | MIC (M. abscessus complex; isolate 7, M. abscessus complex, erm gene type Type 1 abscessus) | MIC (M. abscessus complex; isolate 8, M. abscessus complex, erm gene type Type 1 abscessus) | MIC (M. abscessus complex; isolate 12, M. abscessus complex, erm gene type Type 6 abscessus) | MIC (M. abscessus complex; isolate 15, M. abscessus complex, erm gene type Type 7 abscessus) | MIC (M. chelonae; isolate 18, M. chelonae) | MIC (M. immunogenum group; isolate 37, M. immunogenum group) | MIC (M. immunogenum group; isolate 38, M. immunogenum group)
>64 µg/mL: MIC (M. abscessus complex; isolate 9, M. abscessus complex, erm gene type Type 1 abscessus)
16 µg/mL: MIC (Mycobacterium fortuitum; isolate No. 14, 7484) | MIC90 [1] | MIC (M. abscessus complex; isolate 3, M. abscessus complex, erm gene type MAB30) | MIC (M. abscessus complex; isolate 10, M. abscessus complex, erm gene type Type 1 abscessus) | MIC (M. abscessus complex; isolate 11, M. abscessus complex, erm gene type Type 6 abscessus) | MIC (M. abscessus complex; isolate 14, M. abscessus complex, erm gene type Type 6 abscessus) | MIC (M. abscessus complex; isolate 16, M. abscessus complex, erm gene type Type 7 abscessus) | MIC (M. chelonae; isolate 19, M. chelonae) | MIC (M. chelonae; isolate 20, M. chelonae) | MIC (M. chelonae; isolate 21, M. chelonae) | MIC (M. chelonae; isolate 22, M. chelonae) | MIC (M. immunogenum group; isolate 35, M. immunogenum group) | MIC (M. simiae; isolate 14, Other) | MIC (M. simiae; isolate 15, Other)
1 µg/mL: MIC (Mycobacterium fortuitum; isolate No. 13, 3579)
0.125 µg/mL: MIC (Mycobacterium fortuitum; isolate No. 18, 3316)
32 µg/mL: MIC (M. abscessus complex; isolate 5, M. abscessus complex, erm gene type massiliense/subsp. abs hybrid) | MIC (M. simiae; isolate 13, Other)
0.5 µg/mL: MIC (Mycobacterium fortuitum; isolate No. 12, 3126) | MIC (Mycobacterium fortuitum; isolate No. 15, 3488) | MIC (Mycobacterium fortuitum; isolate No. 16, 3276) | MIC (Mycobacterium fortuitum; isolate No. 17, 3442) | MIC (Mycobacterium fortuitum; isolate No. 19, 3490)
4 µg/mL: MIC (Mycobacterium fortuitum; isolate No. 20, 2491) | MIC50 [1] | MIC (M. abscessus complex; isolate 2, M. abscessus complex, erm gene type MAB30) | MIC (M. abscessus complex; isolate 13, M. abscessus complex, erm gene type Type 6 abscessus) | MIC (M. abscessus complex; isolate 17, M. abscessus complex, erm gene type Type 8 abscessus) | MIC (M. immunogenum group; isolate 36, M. immunogenum group)
≤2 µg/mL: MIC (M. fortuitum group; isolate 23, M. fortuitum group, M. fortuitum) | MIC (M. fortuitum group; isolate 24, M. fortuitum group, M. fortuitum) | MIC (M. fortuitum group; isolate 25, M. fortuitum group, M. fortuitum) | MIC (M. fortuitum group; isolate 26, M. fortuitum group, M. porcinum) | MIC (M. fortuitum group; isolate 27, M. fortuitum group, M. porcinum) | MIC (M. fortuitum group; isolate 28, M. fortuitum group, M. porcinum/M. boenickei) | MIC (M. fortuitum group; isolate 29, M. fortuitum group, M. porcinum/M. boenickei) | MIC (M. fortuitum group; isolate 30, M. fortuitum group, M. porcinum/M. boenickei) | MIC (M. fortuitum group; isolate 31, M. fortuitum group, M. senegalense) | MIC (M. fortuitum group; isolate 32, M. fortuitum group, M. senegalense) | MIC (M. fortuitum group; isolate 33, M. fortuitum group, M. senegalense) | MIC (M. fortuitum group; isolate 34, M. fortuitum group, M. senegalense) | MIC (M. mucogenium group; isolate 39, M. mucogenicum group, M. mucogenicum) | MIC (M. mucogenium group; isolate 40, M. mucogenicum group, M. mucogenicum) | MIC (M. mucogenium group; isolate 41, M. mucogenicum group, M. mucogenicum) | MIC (M. mucogenium group; isolate 42, M. mucogenicum group, M. mucogenicum) | MIC (M. mucogenium group; isolate 43, M. mucogenicum group, M. phocaicum) | MIC (M. mucogenium group; isolate 44, M. mucogenicum group, M. phocaicum) | MIC (M. mucogenium group; isolate 45, M. mucogenicum group, M. phocaicum) | MIC (M. mucogenium group; isolate 46, M. mucogenicum group, M. phocaicum) | MIC (M. mucogenium group; isolate 47, M. mucogenicum group, M. phocaicum) | MIC (M. mucogenium group; isolate 48, M. mucogenicum group, M. phocaicum) | MIC (M. smegmatis group; isolate 49, M. smegmatis group, M. goodii) | MIC (M. smegmatis group; isolate 50, M. smegmatis group, M. wolinskyi)
